From patent US20250228983A1, “PROBES FOR CELLULAR SENESCENCE” (UNIVERSITY OF FLORIDA RESEARCH FOUNDATION, INCORPORATED, priority 2022, published 2025)

Key:
[1] = target: recombinant β-galactosidase (β-gal) (Escherichia coli, UniProt P00722); test: In gel fluorescence labeling efficiency on recombinant β-galactosidase; format: biochemical; conditions: 10 μM probe, 10 units β-gal and/or 50 μg BSA, 50 μL PBS, 37° C., 2 h; compared with NIR-BG2
Description: (§1) FIG. 4. Compare labeling efficiency using in gel fluorescence. 10 μM of NIR-BG2, NIR-BG3 or NIR-BG4 is incubated with 10 units of β-gal and/or 50 μg of BSA in total volume of 50 μL PBS solution were incubated at 37° C. for 2 h. Each lane was loaded with 10 μL of the reaction solution.
(§2) In certain examples, two carbamate analogues were synthesized: NIR-BG3 carrying ethyl carbamate and NIR-BG4 carrying an endocyclic carbamate. To compare these two analogues with NIR-BG2, the three probes were incubated with recombinant β-galactosidase (p-gal) and bovine serum albumin (BSA) and the labeling efficiency of these probes on P-gal and BSA was compared using gel electrophoresis.

[2] = target: bovine serum albumin (BSA) (Bos taurus, UniProt P02769); test: In gel fluorescence nonspecific labeling of BSA; format: biochemical; conditions: 10 μM probe, 50 μg BSA, 50 μL PBS, 37° C., 2 h; compared with NIR-BG2
Chain of bovine serum albumin (BSA) (P02769 25-607): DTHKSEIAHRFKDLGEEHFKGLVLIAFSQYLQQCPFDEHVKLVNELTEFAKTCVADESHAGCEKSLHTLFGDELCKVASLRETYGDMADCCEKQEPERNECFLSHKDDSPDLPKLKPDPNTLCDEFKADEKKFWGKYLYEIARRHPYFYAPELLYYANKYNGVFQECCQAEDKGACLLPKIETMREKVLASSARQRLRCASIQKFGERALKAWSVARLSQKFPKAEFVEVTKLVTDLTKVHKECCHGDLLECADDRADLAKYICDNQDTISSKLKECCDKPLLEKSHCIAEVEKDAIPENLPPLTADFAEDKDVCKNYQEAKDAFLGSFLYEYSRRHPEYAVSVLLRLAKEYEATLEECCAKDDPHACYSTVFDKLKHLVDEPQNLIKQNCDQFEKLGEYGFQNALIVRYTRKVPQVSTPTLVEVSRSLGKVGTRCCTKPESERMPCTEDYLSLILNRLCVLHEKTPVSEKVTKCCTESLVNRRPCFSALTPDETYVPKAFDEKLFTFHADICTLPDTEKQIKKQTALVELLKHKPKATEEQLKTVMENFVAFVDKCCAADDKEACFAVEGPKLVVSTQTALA
Description: as §1, §2

[3] = test system: CT26.WT and CT26.CL25 cells (stably transfected with LacZ); test: Fluorescent cell imaging and flow cytometry of CT26.WT and CT26.CL25 cells; format: cell-based; conditions: 10 μM probe
Description: FIG. 5. FIG. 5A: Fluorescent cell imaging of CT26. WT and CT26.CL25 cells after incubating with 10 μM of NIR-BG2 or NIR-BG3 in serum free medium for 2 hours at 37° C. Cells were fixed, permeabilized with 0.5% Triton X-100 and stained with DAPI. Scale bar: […]. FIG. 5B: Flow cytometry and FIG. 5C quantification of fluorescence in CT26.WT and CT26.CL25 cells after incubating with 10 μM of NIR-BG2 or NIR-BG3.
NIR-BG2 and NIR-BG3 were also compared in CT26.WT and CT26.CL25 that are stably transfected with LacZ.

Chain of recombinant β-galactosidase (β-gal) (P00722 2-1024): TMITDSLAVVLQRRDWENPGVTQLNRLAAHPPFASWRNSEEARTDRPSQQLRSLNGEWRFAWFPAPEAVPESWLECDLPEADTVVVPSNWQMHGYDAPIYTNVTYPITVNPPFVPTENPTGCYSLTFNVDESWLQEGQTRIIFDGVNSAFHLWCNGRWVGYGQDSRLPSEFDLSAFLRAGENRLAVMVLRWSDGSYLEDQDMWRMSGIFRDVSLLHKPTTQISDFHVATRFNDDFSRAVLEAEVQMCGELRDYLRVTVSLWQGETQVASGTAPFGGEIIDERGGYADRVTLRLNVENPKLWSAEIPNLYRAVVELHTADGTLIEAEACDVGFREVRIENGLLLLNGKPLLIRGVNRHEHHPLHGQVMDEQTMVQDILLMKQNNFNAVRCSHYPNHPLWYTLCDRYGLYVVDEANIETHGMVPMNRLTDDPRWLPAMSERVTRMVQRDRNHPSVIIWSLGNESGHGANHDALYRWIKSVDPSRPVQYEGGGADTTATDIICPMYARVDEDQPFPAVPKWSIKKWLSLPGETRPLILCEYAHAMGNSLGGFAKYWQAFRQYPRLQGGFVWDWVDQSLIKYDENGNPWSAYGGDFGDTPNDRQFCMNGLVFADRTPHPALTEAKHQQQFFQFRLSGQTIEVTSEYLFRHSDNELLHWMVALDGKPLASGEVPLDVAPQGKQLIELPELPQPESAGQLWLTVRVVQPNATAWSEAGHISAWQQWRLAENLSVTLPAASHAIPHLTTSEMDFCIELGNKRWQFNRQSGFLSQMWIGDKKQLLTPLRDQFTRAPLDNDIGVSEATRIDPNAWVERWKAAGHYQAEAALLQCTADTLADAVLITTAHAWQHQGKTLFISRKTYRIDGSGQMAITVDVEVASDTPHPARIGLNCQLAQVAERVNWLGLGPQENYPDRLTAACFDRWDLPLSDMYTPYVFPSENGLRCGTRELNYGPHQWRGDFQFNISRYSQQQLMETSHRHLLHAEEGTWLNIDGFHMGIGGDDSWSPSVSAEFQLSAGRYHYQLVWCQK

CCC[N+]1=C(/C=C/C2=C3Oc4cc(OCc5ccc(O[C@@H]6OC(CO)[C@H](O)[C@H](O)C6O)cc5)c(COC(=O)N5CCCCC5)cc4C=C3CCC2)C(C)(C)c2ccccc21 (stereo partly drawn) [NIR-BG4]
labeling efficiency (in gel fluorescence) [1]: significantly higher labeling efficiency | nonspecific labeling of BSA [2]: slightly higher nonspecific labeling of BSA

CCC[N+]1=C(/C=C/C2=C3Oc4cc(OCc5ccc(O[C@@H]6OC(CO)[C@H](O)[C@H](O)C6O)cc5)c(COC(=O)NCC)cc4C=C3CCC2)C(C)(C)c2ccccc21 (stereo partly drawn) [NIR-BG3]
labeling efficiency (in gel fluorescence) [1]: significantly higher labeling efficiency | nonspecific labeling of BSA [2]: slightly higher nonspecific labeling of BSA | contrast for CT26.CL25 cells over CT26.WT ([3]; serum free medium, 2 hours, 37° C.): strong contrast | mean intensity compared to NIR-BG2 ([3]; FIG. 5): about 2 fold | background by flow cytometry ([3]; compared with NIR-BG2): higher background | fluorescence by flow cytometry ([3]; compared with NIR-BG2): overall higher fluorescence | fluorescent intensity (FIG. 5A and FIG. 5C) ([3]; compared with NIR-BG2): much higher than NIR-BG2
